Data on one molecule can be found in PMC11286508, “Repurposing pexmetinib as an inhibitor of TKI-resistant BCR::ABL1” (Leukemia, 2024).

Structures are written as SMILES.

One may read the IC50 as the concentration that inhibits the measured activity by half.

Test [1] has as its system T1, BCR::ABL1 (Ba/F3 isogenic cells).
T1 construct: BCR::ABL1 fusion oncoprotein, one polypeptide (BCR N-terminal, ABL1 C-terminal); expressed in murine Ba/F3 cells by electroporation; with Breakpoint cluster region protein
Nature of the test: Ba/F3 MTS viability assay. In kind it is cell-based. The settings on record: growth of BCR::ABL1-dependent Ba/F3 cells; parental Ba/F3 + IL-3 as control. (Tetrazolium assays rely on reduction of a dye to a coloured formazan, in cell work by metabolically active cells.)

For test [2] the test system is unchanged. Nature of the test: Ba/F3 MTS viability assay. The test is classed as cell-based. The settings on record: growth of BCR::ABL1-dependent Ba/F3 cells; stated gain.

Take `Cc1ccc(-n2nc(C(C)(C)C)cc2NC(=O)NCc2cc(F)ccc2Oc2ccc3c(cnn3CCO)c2)cc1` [pexmetinib]: the IC50 in test [1] is 0.411 µM; in test [2] it was 2.099 µM.
